Target: T1, Isoform 2 of Nuclear receptor ROR-gamma (RORgT) (Homo sapiens, UniProt P51449)
T1 sequence (P51449 whole entry): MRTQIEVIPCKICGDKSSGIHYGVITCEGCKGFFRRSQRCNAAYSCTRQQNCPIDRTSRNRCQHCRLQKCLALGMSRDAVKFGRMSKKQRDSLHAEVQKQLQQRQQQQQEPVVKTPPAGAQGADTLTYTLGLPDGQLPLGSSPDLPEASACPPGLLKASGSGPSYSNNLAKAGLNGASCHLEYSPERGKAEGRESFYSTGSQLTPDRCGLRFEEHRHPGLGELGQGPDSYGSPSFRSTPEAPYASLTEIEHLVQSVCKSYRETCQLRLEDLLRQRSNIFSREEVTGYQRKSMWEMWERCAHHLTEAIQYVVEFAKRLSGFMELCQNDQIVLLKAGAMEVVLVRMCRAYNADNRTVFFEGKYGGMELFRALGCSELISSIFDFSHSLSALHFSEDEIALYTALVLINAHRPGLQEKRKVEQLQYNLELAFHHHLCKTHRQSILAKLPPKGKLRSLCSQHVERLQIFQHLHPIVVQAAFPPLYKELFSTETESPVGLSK
Experiment: RORgamma Gal4 Reporter Gene Assay (FRET)
Description: Determination of a ligand mediated Gal4 promoter driven transactivation to quantify ligand binding to RORγ was performed as follows: DNA encoding three different RORγ protein fragments was cloned into vector pCMV-BD (Stratagene). Expression was under control of a CMV promoter and as fusion to the DNA-binding domain of the yeast protein GAL4. Other vectors used were pFR-Luc (Stratagene) as regulated reporter plasmid. pFR-Luc contains a synthetic promoter with five tandem repeats of the yeast GAL4 binding sites that control expression of the Photinus pyralis (American firefly) luciferase gene. In order to improve experimental accuracy the plasmid pRL-CMV was cotransfected. pRL-CMV contains the constitutive CMV promoter, controlling the expression of the Renilla reniformis luciferase. […] The medium is supplemented with 10% fetal bovine serum, 0.1 mM nonessential amino acids, 1 mM sodium pyruvate, 1% Glutamax and 100 units Penicilin/[…] per mL at 37° C. in 5% CO2.For the assay, […] cells were plated per well in 96 well plates in 100 μL per well, incubated over night at 37° C. in 5% CO2. […] About 4 h after addition of the transfection solution, fresh Minimal Essential Medium (MEM, same composition as used for plating cells, but without serum) was added.

`CC(C)(C)NS(=O)(=O)c1ccc(-c2sc(C(=O)NC3CCOCC3)nc2CC2CCCCC2)cc1C(F)(F)F` [US10301272, Example 9] was tested, and the IC50 was 63.1 nM.
`CC(C)(O)CNC(=O)c1nc(CC2CCC2)c(-c2ccc(S(=O)(=O)NC(C)(C)C)c(Cl)c2OC(F)F)s1` [US10301272, Example 21/1] was tested, and the IC50 was 251 nM.
`CCOC(=O)c1nc(Cc2ccccc2)c(-c2ccc(S(=O)(=O)NC(C)(C)C)c3ccccc23)s1` [US10301272, Example 202] gave an IC50 of 63.1 nM.
